Here are results for 79 compounds from the METLIN SMRT retention time set (Domingo-Almenara et al. 2019).

Structures are written as SMILES.

This data set can be described thus: gradient 5% acetonitrile 3 min, to 50% in 2 min, to 85% in 15 min, held 3 min, 100 µL/min. The settings on record: column: Zorbax Extend-C18 2.1 x 50 mm; eluents: water / acetonitrile, 0.1% formic acid. In short, it runs like this:
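Pure standards were run in mixtures of ~100 molecules by HPLC coupled to a quadrupole time-of-flight mass spectrometer. The column was a Zorbax Extend-C18 (2.1 × 50 mm, 1.8 μm) at 100 μL/min, with water and acetonitrile each containing 0.1% formic acid, in positive and negative ionization mode. Dead and dwell volumes were 40 μL and 900 μL. Retention time was taken from computationally picked adduct peaks, each manually inspected, with data collected over 3 months.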
Turning to `CC1Oc2ccc(S(=O)(=O)N3CCC(C(=O)N(C)C4CCCCC4)CC3)cc2NC1=O` (centres undefined), the RP-LC retention time stood at 858 s. With `O=C(c1ccc(OCC2CCN(C(=O)c3cccs3)CC2)cc1)N1CCOCC1`, the RP-LC retention time came to 747 s. With `O=C(Nc1ccc2c(c1)CN(C(=O)Cn1c(=O)oc3ccccc31)CCO2)C1CC1` the figure was 767 s; with `COc1c(NC=O)c2c(c([N+](=O)[O-])c1OC)C(=O)OC2`, 760 s; with `CCCc1nc2c(c(=O)n1CC(=O)NCc1cccs1)CCN(Cc1ccccc1)C2`, 641 s. Regarding `O=C(CN1CC=C(c2cnn(-c3ccccc3)c2)CC1)N1CCCc2ccccc21`, the RP-LC retention time was determined as 726 s.

Consider `Cc1[nH]c(C(=O)N2CCCC(C(=O)NCc3ccc4c(c3)OCO4)C2)c(C)c1C` (centres undefined), for which the RP-LC retention time was determined as 804 s. With `Cc1cc(C2CCCN2C(=O)Nc2ccc(C)c(C)c2)on1` (centres undefined) the figure was 728 s; with `O=C(C1CC1)N1CCc2sc(S(=O)(=O)NCc3ccccc3)cc2C1`, 795 s. In turn, `Cc1c(Cl)cccc1N1C(=O)CN(S(C)(=O)=O)CC1(C)C(=O)NC1CCCCCCC1` (centres undefined) showed an RP-LC retention time of 1010 s. Under `O=C(NCCc1ccccc1)NC1CCCN(c2cc(-c3ccncc3)[nH]n2)C1` (centres undefined) stands 620 s. Under `COCCOC(=O)C1=C(C)NC2=C(C(=O)C(C(=O)OC)C(C)C2)C1c1cccc(F)c1` (centres undefined) stands 832 s; under `COc1cc2c(cc1OC)C(C(=O)N1CCN(c3ccccn3)CC1)C(c1cccnc1)N(C)C2=O` (centres undefined), 1230 s; under `O=C(NC1CCCCC1)C1CC(=O)N(c2ccc3c(c2)CCN3C(=O)C2CCC2)C1` (centres undefined), 824 s. Take `CCn1c(CCNC(=O)c2ccc(N(C)C)cc2)nc2cccnc21`: the RP-LC retention time was 625 s. Regarding `Cc1ccc2c(c1)NC(=O)c1cc(NC(=O)c3ccno3)ccc1O2`, the RP-LC retention time was 719 s.

`CC1CCN(c2ncc3c(n2)CCN(Cc2ccc(OC(C)C)cc2)C3)CC1`: the RP-LC retention time was determined as 807 s. With `O=C(Nc1ccc(Cl)c(Cl)c1)Nc1nc(-c2ccccc2)cs1` the figure was 1220 s; with `Cc1cc(C(=O)NC2CCCC2)nn1C`, 680 s; with `COc1ccc2c(c1)OC1(C)CC2C(S(=O)(=O)c2ccc(C)cc2)C(=O)N1` (centres undefined), 877 s. Under `CC1=C(c2ccc(C)cc2)S(=O)(=O)N=C1N1CCCN(C(=O)NC2CCCCC2)CC1` stands 890 s; under `Cc1ccc(Nc2nc(C)cc(N3CCN(C(=O)Nc4cccc(C(F)(F)F)c4)CC3)n2)cc1`, 806 s; under `CCc1ccccc1N1C[C@@]23C=C[C@@H](O2)[C@H](C(=O)OC)[C@@H]3C1=O`, 730 s. The compound `C[C@@H]1CN(CC(=O)Nc2ccc3c(c2)Cc2cccc(-c4cc(=O)cc(N5CCOCC5)o4)c2S3)C[C@H](C)O1` registered an RP-LC retention time of 748 s. With `CC(=O)c1ccc(NC(=O)CCn2nc(C)nc2C)cc1` the figure was 557 s; with `O=C(Cc1ccccc1Br)N1CCN(c2cc(-c3cccs3)[nH]n2)CC1`, 837 s. `CCN1CCN(CCCNC(=O)C2CCCN(c3nc4cccnc4s3)C2)CC1` (centres undefined) yielded an RP-LC retention time of 552 s. The compound `COc1ccc(-c2c(C)noc2NC(C)=O)cc1S(=O)(=O)N(C)c1ccc(C)cc1` gave an RP-LC retention time of 830 s. For the compound `CC(C)CN1CCN(S(=O)(=O)c2ccc(-c3nnc(C4CCCC4)o3)o2)CC1`, the RP-LC retention time is 692 s. With `COc1ccc(S(=O)(=O)Cc2nc(-c3cccc(Cl)c3)no2)cc1` the figure was 1020 s. With `CC(=O)c1sc(NC(=O)C2COc3ccccc3O2)nc1C` (centres undefined) the figure was 763 s; with `O=C(Nc1cnn(-c2ncc(N3CCCCC3)cn2)c1)c1ccncc1`, 662 s. With `CCCC(=O)Nc1ccc(S(=O)(=O)NCC(C)(O)COC)cc1` (centres undefined) the figure was 619 s; with `COc1cccc(Nc2c(C(N)=O)cnc3c(C)cc(S(=O)(=O)c4cccc(C(=O)N(C)C)c4)cc23)c1`, 683 s; with `COc1ccc(-c2noc(C3CCCN3C(=O)Nc3ccc(C)c(C)c3)n2)cc1` (centres undefined), 925 s. In the case of `CC1(C)CC(=O)c2cn(-c3ccc(Cl)cc3)c(=O)c(C(=O)N3CCOCC3)c2C1`, the RP-LC retention time was determined as 757 s. In turn, `CCOc1ccc(S(=O)(=O)N2CCCC(C(=O)Nc3ccccc3)C2)cc1` (centres undefined) registered an RP-LC retention time of 999 s. On to `O=C(c1ccc2c(c1)CCCN2S(=O)(=O)c1ccc(Cl)cc1)N1CCOCC1`, for which the RP-LC retention time was found to be 880 s. Compound `CCOCC(=O)N1CC(F)(F)C[C@H]1c1nc(C(=O)NC)no1` had an RP-LC retention time of 626 s. Turning to `COc1ccc(C2C(=O)N(CCc3ccccc3)CC(=O)N2Cc2ccc3c(c2)OCO3)cc1` (centres undefined), the RP-LC retention time turned out to be 933 s.

`CCc1cccc(N2C=C(C(=O)N3CCOCC3)S(=O)(=O)c3ccc(F)cc32)c1` gave an RP-LC retention time of 858 s.

`COc1c(NC(C)=O)c2ccccc2c2ccccc12` returned an RP-LC retention time of 830 s.

Consider `Cc1ccc(Nc2c(-c3ccc(Cl)cc3)nc3nc(C)cc(C)n23)cc1`, for which the RP-LC retention time was found to be 827 s. Under `CCC(=O)N1CCc2sc(C(=O)NCc3ccc(CC)cc3)cc2C1` stands 824 s; under `O=C(NCCc1csc(-c2cccs2)n1)C1CCN(C(=O)c2cccc(Cl)c2)CC1`, 839 s.

Consider `Cc1cccc(-c2nc3ccccn3c2NC(=O)NCc2cccc(F)c2)c1`, for which the RP-LC retention time amounted to 669 s. Compound `CCn1c(CN2CCN(S(C)(=O)=O)CC2)nc2cc(NC(=O)CC(C)C)ccc21` came in with an RP-LC retention time of 630 s. On to `Cc1cc2nc(C(F)(F)F)c(=O)n(C(C)C(=O)N3CCN(C(=O)c4ccco4)CC3)c2cc1C` (centres undefined), for which the RP-LC retention time turned out to be 957 s. Under `COc1cc(NC(=O)N2CCC(N3CCN(Cc4ccc(F)cc4)C(=O)C3=O)CC2)cc(OC)c1` stands 724 s; under `COc1ccc(N2C(=O)CC(N3CCC(C(N)=O)CC3)C2=O)c(OC)c1` (centres undefined), 578 s.

In the case of `CN1CCN(C(=O)c2csc(N3CCN(c4ccccc4F)CC3)n2)CC1`, the RP-LC retention time was found to be 649 s. Under `Cc1cc(NC(=O)C2CCN(c3ccc(-c4cccs4)nn3)CC2)sn1` stands 604 s; under `CCN1CCN(CCCNS(=O)(=O)c2cc(-c3nc(C)c(C)s3)sc2C)CC1`, 608 s. Under `CCOC(=O)c1noc2ncnc(Nc3ccccc3CC)c12` stands 948 s.

Consider `CC1CC(=O)Nc2cc(S(=O)(=O)N3CCN(c4ccccn4)CC3)ccc2S1` (centres undefined), for which the RP-LC retention time was determined as 646 s. Under `CC(NC(=O)c1ccccc1)c1nc(-c2ccc3nnn(C)c3c2)no1` (centres undefined) stands 641 s; under `Cc1cc(Cl)ccc1NC(=O)N1CCC2(CC1)c1nccn1CCN2C`, 612 s; under `Cc1cccc(S(=O)(=O)N2CCCN(c3ccc(=O)n(-c4ccccc4)n3)CC2)c1`, 866 s. With `CCOc1ccccc1NC(=O)N1CCN(c2ccc(=O)n(-c3ccc(C)cc3)n2)CC1` the figure was 915 s. Under `O=C(Nc1cccc(F)c1)C1CC(=O)N(CCc2c[nH]c3ccc(Cl)cc23)C1` (centres undefined) stands 844 s; under `CCC(C)NC(=O)N1CCN(c2cc(-c3cccc(OC)c3)ncn2)CC1` (centres undefined), 634 s. In the case of `Cc1nc(-c2ccc(N3CCN(C(=O)c4ccco4)CC3)nc2)sc1C`, the RP-LC retention time was found to be 759 s. With `CCn1ccc2sc(C)c(C(=O)NC3CCCCCC3)c2c1=O` the figure was 894 s; with `Cc1ccc(NS(=O)(=O)c2ccc3c(c2)CCCC(=O)N3)cc1F`, 763 s. With `O=C(Cn1nc(C(=O)N2CCOCC2)c2ccccc21)Nc1ccc(F)cc1` the figure was 733 s; with `O=C(Nc1ccc2c(c1)OCO2)C(=O)NC1CC1`, 677 s; with `COc1ccc(OC)c(NC(=O)CN2C(=O)COc3ccc(C(=O)N4CCCC4)cc32)c1`, 682 s. Under `CCNC(=O)c1cnn(-c2cc(-c3nc(C(C)C)no3)ccn2)c1C` stands 858 s; under `CCCNC(=O)CN1CCN(c2cc(C(=O)O)c3cc(NC(=O)C(C)C)ccc3n2)CC1`, 568 s; under `O=c1[nH]c2ccc(NCc3ccccc3Cl)cc2[nH]1`, 641 s. For the compound `COc1ccc(Cl)cc1NC(=O)C1CCN(S(=O)(=O)c2ccc3c(c2)NC(=O)C(C)O3)CC1` (centres undefined), the RP-LC retention time turned out to be 946 s. Under `CCOCCCNC(=O)c1cn(CC)nc1S(=O)(=O)N1CCN(c2cccc(Cl)c2)CC1` stands 1030 s; under `CC1CCN(CC[C@H]2CCCN2S(=O)(=O)c2cccc(O)c2)CC1`, 646 s. In turn, `O=C(N1CCCC(c2nnc(-c3cccs3)o2)C1)C1(c2ccccc2)CCOCC1` (centres undefined) displayed an RP-LC retention time of 812 s.

For the compound `N#CC1(C(=O)NCc2nc(-c3ccccc3)no2)CC1`, the RP-LC retention time was determined as 729 s. With `Cc1cnc(C(=O)N2CCC(c3noc(-c4cccnc4)n3)C2)cn1` (centres undefined) the figure was 628 s. With `COc1cc(-c2nc3ncccn3c2Nc2cc(C)ccc2C)ccc1O`, the RP-LC retention time is 672 s. Under `Cc1cc(NC(=O)C2CCCN(c3ccc(-c4ccc(Cl)cc4)nn3)C2)no1` (centres undefined) stands 686 s; under `CC(=O)Nc1ccc(-c2nc3ccccc3s2)cc1`, 799 s.
